Laboratory results from patent US4698300A, “Process and reagent for the determination of α-amylase” (Merck Patent Gesellschaft mit beschrankter Haftung, priority 1983, dated 1987).

Assays:
[1] = pH dependency of the absorption; format: physicochemical; conditions: reagent solution adjusted to pH 7.1, pH increased and decreased stepwise, FIG. 2, versus 4-nitrophenol
Experimental: Determination of α-amylase, pH dependency of the absorption
Under the same conditions as in Example 1, there are measured the extinctions of two reagent solutions adjusted to a pH value of 7.1, one of which contains 2-chloro-4-nitrophenol, the other 4-nitrophenol.

α-amylase = test: determination of α-amylase, time-reaction curve with α-glucosidase and β-glucosidase, extinction at 405 nm; format: biochemical; conditions: for extinction change per minute: substrate in α-amylase determination, FIG. 1, 405 nm, 30° C.
Experimental: For the determination of α-amylase, the reagent solution of substrate, α-glucosidase, β-glucosidase, buffer and activation agent is mixed with the sample solution and the extinction recorded at 405 nm e.g. at 30° C. Typically, 0.2-3.0 ml of reagent is mixed with 1.0-50 μl of sample for ordinary α-amylase concentrations.
Determination of α-amylase
A reagent composition is prepared which, per ml. of test volume, contains the following components: […]
2-chloro-4-nitrophenyl-β,D-
phosphate buffer (pH 6.8)
sodium chloride 0.05 Mol/l.
carrying out of the test: 1 ml. reagent + 10 μl. sample

[2] = optimum pH conditions of the α-amylase determination (6.8-7.1); cited from earlier work

## O=[N+]([O-])c1ccc(O)c(Cl)c1 [2-chloro-4-nitrophenol]
[1]
  influence of change of the pH value on the extinction: less strongly influenced by change of the pH value

## O=[N+]([O-])c1ccc(O[C@H]2O[C@H](CO)[C@@H](O[C@H]3O[C@H](CO)[C@@H](O[C@H]4O[C@H](CO)[C@@H](O[C@H]5O[C@H](CO)[C@@H](O[C@H]6O[C@H](CO)[C@@H](O[C@H]7O[C@H](CO)[C@@H](O[C@H]8O[C@H](CO)[C@@H](O)[C@H](O)[C@H]8O)[C@H](O)[C@H]7O)[C@H](O)[C@H]6O)[C@H](O)[C@H]5O)[C@H](O)[C@H]4O)[C@H](O)[C@H]3O)[C@H](O)[C@H]2O)c(Cl)c1 [2-chloro-4-nitrophenyl-α,D-maltoheptaoside, reference compound]
α-amylase
  extinction change per minute: 0.036

## O=[N+]([O-])c1ccc(O[C@@H]2O[C@H](CO)[C@@H](O[C@H]3O[C@H](CO)[C@@H](O[C@H]4O[C@H](CO)[C@@H](O[C@H]5O[C@H](CO)[C@@H](O[C@H]6O[C@H](CO)[C@@H](O[C@H]7O[C@H](CO)[C@@H](O[C@H]8O[C@H](CO)[C@@H](O)[C@H](O)[C@H]8O)[C@H](O)[C@H]7O)[C@H](O)[C@H]6O)[C@H](O)[C@H]5O)[C@H](O)[C@H]4O)[C@H](O)[C@H]3O)[C@H](O)[C@H]2O)c(Cl)c1 [2-chloro-4-nitrophenyl-β,D-maltoheptaoside]
α-amylase; line I in comparison with line III (4-nitrophenyl-α,D-maltoheptaoside), FIG. 1, Example 1
  increase of the change of absorption (Δ E/min.): ~ 0.05
α-amylase; relative to 4-nitrophenyl-α,D-maltoheptaoside, FIG. 1
  factor of increase of extinction change per minute: 3
α-amylase
  extinction change per minute: above 0.075

## O=[N+]([O-])c1ccc(O[C@H]2O[C@H](CO)[C@@H](O[C@H]3O[C@H](CO)[C@@H](O[C@H]4O[C@H](CO)[C@@H](O[C@H]5O[C@H](CO)[C@@H](O[C@H]6O[C@H](CO)[C@@H](O[C@H]7O[C@H](CO)[C@@H](O[C@H]8O[C@H](CO)[C@@H](O)[C@H](O)[C@H]8O)[C@H](O)[C@H]7O)[C@H](O)[C@H]6O)[C@H](O)[C@H]5O)[C@H](O)[C@H]4O)[C@H](O)[C@H]3O)[C@H](O)[C@H]2O)cc1 [4-nitrophenyl-α,D-maltoheptaoside, reference compound]
α-amylase
  extinction change per minute: 0.024

## O=[N+]([O-])c1ccc(O)cc1 [p-nitrophenol]
[2]
  liberated p-nitrophenol present as colored phenolate anion: about 50%
